Holding throughout (assay type): cell-based, human
The test system of experiment [1] is iFECD. Kind of experiment: HE-staining of extracellular matrix on Transwell with SB431542. The following applies: iFECD on Transwell without serum, fixed one week later; FIG. 9; p<0.01. The protocol:
The iHCEC and the iFECD were cultured in DMEM on Transwell without serum, one week after which they were fixed in a confluent state and HE-stained. The procedure is as described below. If required, deparaffinization (for example, with pure ethanol) and water washing were carried out, and the sample was immersed in hematoxylin from Omni for 10 minutes. Thereafter, water washing with running water was performed, and ammonia water was used for developing color for 30 seconds. Thereafter, water washing with running water for 5 minutes, staining for 2 minutes with a ten-fold diluted solution of eosin hydrochloride, dehydration, lucidification, and mounting were performed. […] Further, the iHCEC and the iFECD were cultured on Transwell Permeable Supports: 0.4 μm, six well plates (Costar, Cat no.: 3450) without serum, one week after which they were fixed in a confluent state and HE-stained. The HE-staining was carried out in accordance with the procedure of the above-described examples.

Experiment [2] has as its system iFECD. In words: Real-time PCR of gene expression with TGF-beta signal inhibiting agent SB431542. The settings on record: SB431542 0, 1, 3, 10 μM, FIG. 7, p<0.01. The protocol: Real-time PCR method: In addition, PCR was performed by a Taqman method for Snail1, Snail2, or ZEB1 in accordance with the following method. A Taqman probe was purchased from INVITROGEN. The mRNA amount of collagen type I, collagen type IV, and Fibronectin was examined by a real-time PCR method. RNEasy (QIAGEN, Catalog number: 74106) was used in extraction of the total RNA from cells. The extracted RNA was subjected to a reverse transcription reaction (42° C., 60 minutes) with ReverTra Ace (TOYOBO Co., Ltd., Catalog number: TRT-101), and collagen type I, collagen type IV, and Fibronectin were amplified with a reaction reagent TaqMan Fast Advanced mastermix (Applied Biosystems) using GAPDH as an internal standard. Probes (a labeled primer set available from Applied Biosystems) described below was used in the PCR reaction, which was performed in the StepOne™ (Applied Biosystems) real-time PCR system. It was then examined whether a TGF-beta signal inhibiting agent, SB431542, can be used to inhibit a TGF-beta signal and adjust extracellular matrix abnormality in a corneal endothelium. SB431542 was obtained from TOCRIS Corporation (Catalog number: 1614). The gene expression amount was confirmed by real-time PCR. Real-time PCR was carried out in accordance with the above-described examples. The following probes were used for collagen type I, collagen type IV, collagen type VIII, and Fibronectin. Collagen type I Hs00164004_ml COL1A1 Collagen type IV Hs00266327_ml COL4A1 Collagen type VIII Hs00697025_ml COL8A2 Fibronectin Hs01549976_ml FN1 GAPDH TaqMan® pre developed Assay Reagents Human GADPH (cat no.: 4333764F)

Experiment [3] concerns iFECD. In words: Immunostaining of extracellular matrix-constituting proteins with SB431542. The settings on record: FIG. 8. The protocol:
For a tissue staining test, cultured cells were put in Lab-TekTM Chamber SlidesTM (NUNC A/S, Roskilde, Denmark), fixed with 4% formaldehyde for 10 minutes at room temperature (RT), and incubated with 1% bovine serum albumin (BSA) for 30 minutes. […] In order to examine expression of an extracellular matrix produced by cells, a 1:200 dilution of each of antibodies against collagen type I, collagen type IV, and Fibronectin was used to carry out. For a secondary antibody, a 1:2000 dilution of Alexa Fluor (registered trademark) 488 labeled, or Alexa Fluor (registered trademark) 594 labeled goat anti-mouse IgG (Life Technologies) was used. Cell nuclei were then stained with DAPI (Vector Laboratories, Inc., Burlingame, Calif.) or PI (Sigma-Aldrich). A slide was then observed under a fluorescence microscope (TCS SP2 AOBS; Leica Microsystems, Welzlar, Germany). Then, expression of collagen type I, collagen type IV, and Fibronectin was similarly examined by immunostaining. The immunostaining was carried out in accordance with the above-described examples, provided that the following antibodies were used as antibodies for collagen type I, collagen type IV, and Fibronectin. An antibody against collagen type I: Anti collagen type I (Rabbit polyclonal) ([…] antibodies and assays, Cat no.: 600-401-103S) An antibody against collagen type IV: collagen type IV (Rabbit polyclonal)(Abcam, Cat no.: ab6586) An antibody against Fibronectin: Anti-fibronectin (mouse monoclonal) (BD Biosciences, Cat no.: 610077)

`NC(=O)c1ccc(-c2nc(-c3ccc4c(c3)OCO4)c(-c3ccccn3)[nH]2)cc1` [SB431542, 4-[4-(1,3-benzodioxol-5-yl)-5-(2-pyridinyl)-1H-imidazol-2-yl]benzamide]: in experiment [1], the “overproduction of an extracellular matrix (thickness, HE-staining)” value is on record as “suppressed overproduction of an extracellular matrix in the iFECD to result in the normal level”. In addition, in experiment [2], the “expression amount of Snail1 (real-time PCR)” value was “significant decrease” and the “expression amount of ZEB1 (real-time PCR)” value is “significant decrease”. Also, in experiment [2] (iFECD), the “gene expression of Fibronectin (real-time PCR)” value is listed as “significantly suppressed”, the “gene expression of collagen type I (real-time PCR)” value is given as “significantly suppressed”, the “gene expression of collagen type IV (real-time PCR)” value is given as “significantly suppressed” and the “gene expression of collagen type VIII (real-time PCR)” value is recorded as “significantly suppressed”. In experiment [3], the “expression of Fibronectin in a protein level (immunostaining)” value is “suppressed”, the “expression of collagen type I in a protein level (immunostaining)” value is “suppressed”, the “expression of collagen type IV in a protein level (immunostaining)” value is “suppressed” and the “expression of collagen type VIII in a protein level (immunostaining)” value was “suppressed”.

For the origin of these results see US11730722B2, “Corneal endothelium ECM therapeutic medicaments” (KYOTO PREFECTURAL PUBLIC UNIVERSITY CORPORATION, priority 2013, dated 2023).
